Read-outs that look alike come from different tables or passages of the source.
How the values were obtained:
[1] = test system: TNF-α; details: macrophages and other cells; Cain et al. 1998; cited from earlier work
[2] = test system: fibrogenic cytokines such as TGF-β1, bFGF, PDGF, and EGF; details: Zhang S et al. 1998; cited from earlier work
[3] = Single-dose four-treatment crossover study of the effect of food and antacid on adverse events; type: in vivo, human; details: for subjects who experienced an adverse event: single oral dose 3×267 mg, 16 healthy adults
Description: (§1) A study was designed to evaluate the effect of food, antacids, and food taken with antacids on adverse events associated with pirfenidone use. The trial was conducted as a randomized, open-label, four-treatment crossover, with a single dose for each treatment period and a 2-day washout period between study treatments. 16 healthy adults between the ages of 50 and 79 years having body mass indices between 18 and 30 (inclusive) were enrolled and completed all 4 treatment arms. The treatment arms were as follows:
A) pirfenidone alone (Fasted);
B) pirfenidone within 1 minute following a dose of antacid (20 mL Mylanta® Maximum Strength Liquid) (Fasted+Antacid);
C) pirfenidone 5 minutes after completing a standard meal (Fed); and
D) pirfenidone 5 minutes after completing a standard meal, then within 1 minute, followed by a dose of antacid (Fed+Antacid).
(§2) All subjects were admitted to the clinic for clinical evaluation the day prior to receiving the first dose of the study medication and remained confined for 13 days. Following an overnight fast of at least 10 hours (h), subjects were randomized to one of the above-described 4 treatment sequences. Each dose of pirfenidone (3×267 mg capsules) was administered orally with 240 mL room temperature water on days 1, 4, 7, and 10 in the morning, following an overnight fast of at least 10 hours. The washout period between treatments was 2 days. A standard meal consisted of 2 fried eggs, 2 strips of bacon, 2 slices of toast, 2 pats of butter, hash brown potatoes (4 oz), and whole milk (8 oz).
On each study day, adverse events were reviewed with the patients as follows. Before administration of the first dose of the study drug, study site personnel noted the occurrence and nature of each subject's medical condition(s). During the trial, site personnel again noted any change in the condition(s) or occurrence and nature of any adverse events. The severity of adverse events were graded based on the Modified Common Toxicity Criteria and the relationship of the study drug to the adverse event determined.

[4] = Pharmacokinetics of an 801 mg pirfenidone dose taken with or without food; type: in vivo, human; details: for half-life: human, plasma, oral, 801 mg, read-out: mean absorption half life (converted)
Description: as §1, §2
Of 7 subjects who reported nausea, 5 of 16 (31%) were fasted compared to only 2 of 16 (13%) fed subjects. Of 5 subjects reporting dizziness, 4 of 16 (25%) were fasted, while only 1 of 16 (6%) was fed. Of 3 subjects reporting somnolence, 2 of 16 (13%) were fasted and 1 of 16 (6%) were fed. Of 3 subjects reporting headaches, 2 of 16 (13%) were fasted and 1 of 16 (6%) were fed.

[5] = Multiple-dose escalating-dose study of adverse events, doses taken with food; type: in vivo, human; details: 801 to 4005 mg/day escalating
Description: A second study was designed to examine incidences of adverse events on multiple ascending daily doses of pirfenidone. The trial was conducted as an open-label, escalating-dose study with no washout period between dose escalations. 25 healthy adults between the ages of 45 and 79 (inclusive) having body mass indices between 18 and 30 (inclusive) were enrolled. 22 adults completed the treatment. Each volunteer received from 801 mg/day to 4005 mg/day of pirfenidone divided into three equal doses as follows:
All subjects were admitted to the clinic for clinical evaluation the day before the first dose of study medication and remained confined for 17 days. Each subject received all dose levels of the study drug unless adverse events or the clinical judgment of the trial physician precluded the continuation of treatment. All doses were taken with 240 mL room temperature water and with food (excluding grapefruit juice). TID doses times were ˜0800, ˜1200, and ˜1800.

[6] = 801 mg pirfenidone without food

In the case of `Cc1ccc(=O)n(-c2ccccc2)c1` [pirfenidone, 5-methyl-1-phenyl-2-(1H)-pyridone], the “effect on synthesis and release of TNF-α” value [1] is listed as “blocks the synthesis and release of excessive amounts of TNF-α”, the “effect on biosynthesis or release of fibrogenic cytokines” value [2] is listed as “inhibits excessive biosynthesis or release” and the incidence of somnolence ([3]; all arms, 4 of 16) is listed as 25%. The incidence of dizziness ([3]; all arms, 6 of 16) was 38%, the incidence of nausea ([3]; all arms, 7 of 16) was 44% and the subjects with adverse events in whom the adverse events were mild ([3]; all arms, 8 of the 12 subjects with an adverse event) was 66.7%. The “subjects with at least 1 adverse event in total” value ([3]; all four treatment arms, 12 of 16 subjects) was 75%, the incidence of headaches ([3]; fasted, 2 of 16) was 13% and the incidence of somnolence ([3]; fasted, 2 of 16) was 13%. For the same molecule, the incidence of dizziness ([3]; fasted, 4 of 16) was 25%, the incidence of nausea ([3]; fasted, 5 of 16) was 31% and the incidence of dizziness ([3]; fed, 1 of 16) was 6%. It also gave an incidence of headaches ([3]; fed, 1 of 16) of 6%, an incidence of somnolence ([3]; fed, 1 of 16) of 6% and an incidence of nausea ([3]; fed, 2 of 16) of 13%. The “subjects who experienced an adverse event” value ([3]; pirfenidone alone without food (Fasted)) was 56.3%, the “subjects who experienced an adverse event” value ([3]; with food (Fed)) was 31.3% and the “subjects who experienced an adverse event” value ([3]; with food and antacid (Fed+Antacid)) was 25%. For the same molecule, the “subjects who experienced an adverse event” value ([3]; within 1 minute following a dose of antacid (Fasted+Antacid)) was 56.3%, the “mean maximum plasma concentration” value ([4]; 801 mg pirfenidone with food) was 7874 ng/mL and the “mean maximum plasma concentration” value [4, 6] was 15724 ng/mL. For the same molecule, the half-life ([4]; 801 mg pirfenidone with food) was 1.78 h, the half-life [4, 6] was 0.572 h and the “subjects with at least one adverse event” value ([5]; TID with food, 23 of 25 healthy adults) was 92%. For the same molecule, the incidence of headache ([5]; with food, 7 of 25) was 28%, the incidence of somnolence ([5]; with food, 8 of 25) was 32% and the incidence of nausea ([5]; with food, 9 of 25) was 36%. For the same molecule, the “subjects with adverse events in whom the adverse events were mild” value ([5]; with food, 22 of the 23 subjects) was 95%.

— patent US20070203202A1, “Methods of reducing adverse events associated with pirfenidone therapy” (priority 2005, published 2007)
